Reference: the NIST ThermoML archive (doi:10.1016/j.jct.2015.05.024)
± gives the expanded uncertainty stated by the source.

Columns and labels:
[1] = 100 kPa, Liquid; for mass density: Vibrating tube method; for speed of sound: Frequency=5 MHz, Pulse-echo method
[2] = xn = mol fraction of the nth substance listed; conditions: 100 kPa, Liquid, x2 = 0; for mass density: Vibrating tube method; for speed of sound: Frequency=5 MHz, Pulse-echo method

OCCOCCOCCO [triethylene glycol] showed a mass density ([1]; 278.15 K) of 1135.14 ± 0.34 kg/m3, a mass density ([1]; 283.15 K) of 1131.29 ± 0.34 kg/m3 and a speed of sound ([1]; 288.15 K) of 1643.9 ± 1.4 m/s. The mass density ([1]; 288.15 K) was 1127.43 ± 0.33 kg/m3, the speed of sound ([1]; 293.15 K) was 1629 ± 1.4 m/s and the mass density ([1]; 293.15 K) was 1123.56 ± 0.33 kg/m3. It also gave a speed of sound ([1]; 298.15 K) of 1613.5 ± 1.4 m/s, a mass density ([1]; 298.15 K) of 1119.69 ± 0.33 kg/m3 and a speed of sound ([1]; 303.15 K) of 1599.1 ± 1.4 m/s. For the same compound, the mass density ([1]; 303.15 K) was 1115.81 ± 0.32 kg/m3, the speed of sound ([1]; 308.15 K) was 1584.6 ± 1.4 m/s and the mass density ([1]; 308.15 K) was 1111.92 ± 0.32 kg/m3. It also gave a speed of sound ([1]; 313.15 K) of 1569.1 ± 1.4 m/s, a mass density ([1]; 313.15 K) of 1108.03 ± 0.32 kg/m3 and a speed of sound ([1]; 318.15 K) of 1554.7 ± 1.4 m/s. For the same compound, the mass density ([1]; 318.15 K) was 1104.13 ± 0.31 kg/m3, the mass density ([1]; 323.15 K) was 1100.22 ± 0.31 kg/m3 and the mass density ([1]; 328.15 K) was 1096.3 ± 0.31 kg/m3. The mass density ([1]; 333.15 K) was 1092.38 ± 0.3 kg/m3.
For O [water], the mass density ([1]; 278.15 K) was 999.965 ± 0.11 kg/m3, the mass density ([1]; 283.15 K) was 999.698 ± 0.11 kg/m3 and the speed of sound ([1]; 313.15 K) was 1528.8 ± 0.99 m/s. The speed of sound ([1]; 318.15 K) was 1536.7 ± 0.99 m/s, the mass density ([1]; 323.15 K) was 988.027 ± 0.11 kg/m3 and the mass density ([1]; 328.15 K) was 985.682 ± 0.11 kg/m3. It also gave a mass density ([1]; 333.15 K) of 983.186 ± 0.11 kg/m3.
Work on O [water] + OCCOCCOCCO yielded a mass density ([2]; 278.15 K) of 999.965 ± 0.11 kg/m3, a mass density ([2]; 283.15 K) of 999.698 ± 0.11 kg/m3 and a speed of sound ([2]; 313.15 K) of 1528.8 ± 0.99 m/s. For the same compound, the speed of sound ([2]; 318.15 K) was 1536.7 ± 0.99 m/s, the mass density ([2]; 323.15 K) was 988.027 ± 0.11 kg/m3 and the mass density ([2]; 328.15 K) was 985.682 ± 0.11 kg/m3. The mass density ([2]; 333.15 K) was 983.186 ± 0.11 kg/m3.
